The record followed here is ChEMBL document CHEMBL2346660, “Synthesis and biological evaluation of trans 6-methoxy-1,1-dimethyl-2-phenyl-3-aryl-2,3-dihydro-1H-inden-4-yloxyalkylamine derivatives against drug susceptible, non-replicating M. tuberculosis H37Rv and clinical multidrug resistant strains” (Bioorg Med Chem Lett, 2013).

For series [1], the system named is Mycobacterium tuberculosis. The series is described as follows: Antimicrobial activity against Mycobacterium tuberculosis H37Rv by BACTEC radiometric method. The class given is functional.
The nature of series [2]: Selectivity index, ratio of CC50 for african green monkey Vero cells tp MIC for Mycobacterium tuberculosis H37Rv. The class given is functional.
A short description of series [3]: Cytotoxicity against african green monkey Vero cells after 72 hrs by resazurin assay. Format: cell-based. As to conditions: chlorocebus sabaeus. A general note: Resazurin is reduced to fluorescent resorufin, in cell work by metabolically active cells.
A short description of series [4]: Lipophilicity, log P of the compound. Format: physicochemical. Particulars: octanol/water.
The test system of series [5] is Mycobacterium tuberculosis. The series is described as follows: Antimicrobial activity against compound-sensitive Mycobacterium tuberculosis 2280 by agar dilution method and BACTEC radiometric method. Format: functional. For orientation: Agar dilution tests growth on a series of plates holding different concentrations.
Series [6] deals with Mycobacterium tuberculosis. Nature of the series: Antimicrobial activity against Mycobacterium tuberculosis H37Rv infected in BALB/c mouse assessed as log10 reduction of bacterial growth in lungs at 25 mg/kg, po administered 6 days a week for 30 days starting from 2 days post infection relative to untreated control. The class given is functional.
For series [7], the system named is Mycobacterium tuberculosis. Format: functional, organism-based. As to conditions: H37Rv, 6.25 ug/ml.
Series [8] has as its system Mycobacterium tuberculosis. The series is described as follows: Antimicrobial activity against Mycobacterium tuberculosis H37Rv infected in BALB/c mouse assessed as log10 reduction of bacterial growth in lungs at 100 mg/kg, po administered 6 days a week for 30 days starting from 2 days post infection relative to untreated control. The class given is functional.
In series [9] the test system is Mycobacterium tuberculosis. The series is described as follows: Antimicrobial activity against Mycobacterium tuberculosis H37Rv infected in mouse J774A.1 cells assessed as growth inhibition at MIC. The class given is functional.

Molecules are shown by their SMILES. ≈ marks a conversion by molar mass, not a printed value. Calls of active or inactive are those of the source. Where only a bound is given, the exact number is not on record here.

As usually defined, the MIC is the smallest concentration in the dilution series that meets the test's criterion for growth inhibition. The CC50 is the concentration at which the toxic effect on the cells reaches its halfway point. The logP is the decadic logarithm of the partition coefficient of the neutral form, usually between octanol and water. For `COc1cc(OCCN2CCCCCC2)c2c(c1)C(C)(C)[C@H](c1ccccc1)[C@H]2c1c(OC)ccc2ccccc12` (relative stereo), the MIC in series [1] and in [5] was 1.56 µg/mL (≈ 2.84 µM) each time. Also, the “Selectivity Index” value in series [2] came to 15.37. In addition, the CC50 at 72 h in [3] worked out at 24 µg/mL (≈ 43.6 µM). In addition, in [4], the logP amounted to 8.53.
`COc1cc(OCCN2CCCCC2)c2c(c1)C(C)(C)[C@H](c1ccccc1)[C@H]2c1ccccc1` (relative stereo) gave a minimal inhibitory concentration (MIC) in [1] of 1.56 µg/mL (≈ 3.42 µM). In addition, in series [2], the “Selectivity Index” value is 1.54. The compound further displayed a cytotoxic concentration (CC50) at 72 h in series [3] of 2.41 µg/mL (≈ 5.29 µM). This compound displayed a lipophilicity (logP) in [4] of 6.57.
`COc1cc(OCCCN(C)C)c2c(c1)C(C)(C)[C@H](c1ccccc1)[C@H]2c1ccccc1` (relative stereo): inhibition of growth in series [1] (MIC) required 3.12 µg/mL (≈ 7.27 µM). In addition, the “Selectivity Index” value in [2] came to 1.4. For the same compound, the CC50 at 72 h in [3] turned out to be 4.59 µg/mL (≈ 10.7 µM). The compound further yielded a log partition coefficient (logP) in series [4] of 6.62.
Turning to `NNC(=O)c1ccncc1` [ISONIAZID], the log10cfu in series [6] came to 2.8.
With `COc1cc(OCCN2CCCCC2)c2c(c1)C(C)(C)[C@H](c1ccccc1)[C@H]2c1c(OC)ccc2ccccc12` (relative stereo), the MIC in [1] was 1.56 µg/mL (≈ 2.91 µM). Besides, in series [2], the “Selectivity Index” value is 3.53. Moreover, the CC50 at 72 h in series [3] came to 5.52 µg/mL (≈ 10.3 µM). The compound also displayed a logP in series [4] of 8.11.
In series [1], `CO[C@H]1/C=C/O[C@@]2(C)Oc3c(C)c(O)c4c(O)c(cc(O)c4c3C2=O)NC(=O)/C(C)=C\C=C\[C@H](C)[C@H](O)[C@@H](C)[C@@H](O)[C@@H](C)[C@H](OC(C)=O)[C@@H]1C` [RIFAMYCIN] showed an MIC of 0.39 µg/mL (≈ 0.559 µM). Besides, the “Selectivity Index” value in [2] is recorded as 160.1. For the same compound, the midpoint of cytotoxicity in series [3], the CC50 at 72 h, lay at 62.5 µg/mL (≈ 89.5 µM). Further, the lipophilicity (logP) in series [4] was 3.71.
The like results for `COc1cc(OCCN2CCCC2)c2c(c1)C(C)(C)[C@H](c1ccccc1)[C@H]2c1ccccc1` (relative stereo) were, in that order, 3.12 µg/mL (≈ 7.08 µM), 2.39, 7.49 µg/mL (≈ 17 µM) and 6.83.
As to `COc1cc(OCCN(C)C)c2c(c1)C(C)(C)[C@H](c1ccccc1)[C@H]2c1ccccc1` (relative stereo), in series [1], the lowest concentration to inhibit growth (MIC) was 6.25 µg/mL (≈ 15 µM). In series [2], the “Selectivity Index” value came to 0.47. The compound further registered a CC50 at 72 h in series [3] of 2.96 µg/mL (≈ 7.12 µM). This compound also showed a logP in series [4] of 7.24.
With `CC[C@@H](CO)NCCN[C@@H](CC)CO` [ETHAMBUTOL], the MIC in series [1] amounted to 0.5 µg/mL (≈ 2.45 µM). The “Selectivity Index” value in series [2] is recorded as 77.02. Further, in series [3], the CC50 at 72 h is 38.5 µg/mL (≈ 188 µM). In series [4], this compound gave a logP of 0.14.
`COc1cc(OCCN2CCCCCC2)c2c(c1)C(C)(C)[C@H](c1ccccc1)[C@H]2c1ccccc1` (relative stereo) displayed an MIC in [1] of 3.12 µg/mL (≈ 6.65 µM). For the same compound, the “Selectivity Index” value in series [2] is 2.6. This compound also displayed a CC50 at 72 h in series [3] of 8.11 µg/mL (≈ 17.3 µM). The lipophilicity (logP) in series [4] is 7.66.
For `CCN(CC)CCOc1cc(OC)cc2c1[C@H](c1ccccc1)[C@@H](c1ccccc1)C2(C)C` (relative stereo) the same measures were 3.12 µg/mL (≈ 7.04 µM), 1.19, 3.74 µg/mL (≈ 8.43 µM) and 7.19.
For `COc1cc(OCCN2CCOCC2)c2c(c1)C(C)(C)[C@H](c1ccccc1)[C@H]2c1ccccc1` (relative stereo) the same measures were 3.12 µg/mL (≈ 6.83 µM), 5.6, 17.5 µg/mL (≈ 38.2 µM) and 6.11.
Take `COc1cc(OCCN(C(C)C)C(C)C)c2c(c1)C(C)(C)[C@H](c1ccccc1)[C@H]2c1ccccc1` (relative stereo): the MIC in series [1] and in series [5] was 3.12 µg/mL (≈ 6.63 µM) each time. Besides, the “Selectivity Index” value in series [2] came to 15.73. In addition, the outcome in series [7] was Active. In [3], this compound showed a CC50 at 72 h of 49.2 µg/mL (≈ 104 µM). Moreover, in series [4], the logP was found to be 7.82. For the same compound, in series [8], the log10cfu amounted to 1.35. The “growth inhibition (GI)” value in series [9] was >90%.
